The target of the first test is human orexin-2 receptor (Homo sapiens (Human), UniProt O43614). The experiment in a line: Human orexin 2 receptor radioligand binding ([3H]-EMPA competition). Conditions: HEK293 cells stably expressing human orexin-2 receptor; [3H]-EMPA 5 nM final; apparent Ki=IC50/(1+C/Kd), Kd=2 nM; read-out: OR 2 Ki.
Chain of human orexin-2 receptor (O43614 whole entry): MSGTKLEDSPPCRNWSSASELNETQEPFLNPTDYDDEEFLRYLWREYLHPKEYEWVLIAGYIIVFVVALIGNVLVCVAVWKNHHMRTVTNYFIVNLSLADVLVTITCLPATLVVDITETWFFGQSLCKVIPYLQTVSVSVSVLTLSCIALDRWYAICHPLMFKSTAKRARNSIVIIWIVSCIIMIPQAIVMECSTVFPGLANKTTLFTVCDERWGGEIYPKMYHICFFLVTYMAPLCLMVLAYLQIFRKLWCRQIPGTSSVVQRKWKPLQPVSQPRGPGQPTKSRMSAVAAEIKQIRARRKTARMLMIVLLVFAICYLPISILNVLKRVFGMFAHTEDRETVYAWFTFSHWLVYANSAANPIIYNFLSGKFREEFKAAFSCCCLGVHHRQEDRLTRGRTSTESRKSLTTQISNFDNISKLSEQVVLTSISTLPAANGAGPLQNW
Regarding `COc1cc2ccccc2cc1C(=O)N1CC2CN(c3nc(C)cc(C)n3)CC2C1` (stereo not shown) [Example 338, [5-(4,6-Dimethyl-pyrimidin-2-yl)-hexahydro-pyrrolo[3,4-c]pyrrol-2-yl]-(3-methoxy-naphthalen-2-yl)-methanone], the Ki came out at 1600 nM.
Take `COc1c(C(=O)N2CC3CN(c4nc(C)cc(C)n4)CC3C2)ccc2ccccc12` (stereo not shown) [Example 340, [5-(4,6-Dimethyl-pyrimidin-2-yl)-hexahydro-pyrrolo[3,4-c]pyrrol-2-yl]-(1-methoxy-naphthalen-2-yl)-methanone]: the Ki was 1520 nM.
As for `Cc1ccnc(-c2cc(F)ccc2C(=O)N2CC3CN(c4nc(C)cc(C)n4)CC3C2)c1` (stereo not shown) [Example 343, (5-(4,6-Dimethylpyrimidin-2-yl)hexahydropyrrolo[3,4-c]pyrrol-2(1H)-yl)(4-fluoro-2-(4-methylpyridin-2-yl)phenyl)methanone], the Ki is 36 nM.
On the same count and under the same terms, under `CCCOc1cccnc1C(=O)N1CC2CN(c3nc(C)cc(C)n3)CC2C1` (stereo not shown) [Example 344, (5-(4,6-dimethylpyrimidin-2-yl)hexahydropyrrolo[3,4-c]pyrrol-2(1H)-yl)(3-propoxypyridin-2-yl)methanone] stands 1500 nM.
In the case of `Cc1cc(C)nc(N2CC3CN(C(=O)c4ccc(F)cc4-c4ncccc4F)CC3C2)n1` (stereo not shown) [Example 346, (5-(4,6-Dimethylpyrimidin-2-yl)hexahydropyrrolo[3,4-c]pyrrol-2(1H)-yl)(4-fluoro-2-(3-fluoropyridin-2-yl)phenyl)methanone], the Ki came to 25 nM.
As for `CCCOc1cccnc1C(=O)N1CC2CN(c3cnc4ccccc4n3)CC2C1` (stereo not shown) [Example 347, (3-Propoxypyridin-2-yl)(5-(quinoxalin-2-yl)hexahydropyrrolo[3,4-c]pyrrol-2(1H)-yl)methanone], the Ki turned out to be 3100 nM.
On the same count and under the same terms, under `COc1cccc(OC)c1C(=O)N1CC2CN(c3ccc(C(F)(F)F)cn3)CC2C1` (stereo not shown) [Example 349, 2-[(2,6-Dimethoxyphenyl)carbonyl]-5-[5-(trifluoromethyl)pyridin-2-yl]octahydropyrrolo[3,4-c]pyrrole] stands 10000 nM; under `COc1cccc(OC)c1C(=O)N1CC2CN(c3nc(C)cc(C)n3)CC2C1` (stereo not shown) [Example 351, (2,6-Dimethoxyphenyl)(5-(4,6-dimethylpyrimidin-2-yl)hexahydropyrrolo[3,4-c]pyrrol-2(1H)-yl)methanone], 1200 nM; under `Cc1cc(C)nc(N2CC3CN(C(=O)c4occc4C)CC3C2)n1` (stereo not shown) [Example 352, (5-(4,6-Dimethylpyrimidin-2-yl)hexahydropyrrolo[3,4-c]pyrrol-2(1H)-yl)(3-methylfuran-2-yl)methanone], 10000 nM.
For `Cc1ccoc1C(=O)N1CC2CN(c3ccc(C(F)(F)F)cn3)CC2C1` (stereo not shown) [Example 353, 2-[(3-Methylfuran-2-yl)carbonyl]-5-[5-(trifluoromethyl)pyridin-2-yl]octahydropyrrolo[3,4-c]pyrrole], the Ki was determined as 10000 nM.
Regarding `Cc1ccoc1C(=O)N1CC2CN(c3cnc4ccccc4n3)CC2C1` (stereo not shown) [Example 355, (3-Methylfuran-2-yl)(5-(quinoxalin-2-yl)hexahydropyrrolo[3,4-c]pyrrol-2(1H)-yl)methanone], the Ki is 10000 nM.
As for `Cc1cc(C)nc(N2CC3CN(S(=O)(=O)c4ccccc4-c4ccccc4)CC3C2)n1` (stereo not shown) [Example 358, 2-([1,1′-Biphenyl]-2-ylsulfonyl)-5-(4,6-dimethylpyrimidin-2-yl)octahydropyrrolo[3,4-c]pyrrole], the Ki was determined as 230 nM.
The same measure, in the same setting: in the case of `COc1ccccc1S(=O)(=O)N1CC2CN(c3nc(C)cc(C)n3)CC2C1` (stereo not shown) [Example 359, 2-(4,6-Dimethylpyrimidin-2-yl)-5-((2-methoxyphenyl)sulfonyl)octahydropyrrolo[3,4-c]pyrrole] it was 180 nM; in that of `COc1ccccc1S(=O)(=O)N1CC2CN(c3ccc(C(F)(F)F)cn3)CC2C1` (stereo not shown) [Example 361, 2-((2-Methoxyphenyl)sulfonyl)-5-(5-(trifluoromethyl)pyridin-2-yl)octahydropyrrolo[3,4-c]pyrrole], 4400 nM.
Turning to `COc1ccccc1S(=O)(=O)N1CC2CN(c3cnc4ccccc4n3)CC2C1` (stereo not shown) [Example 362, 2-(5-((2-Methoxyphenyl)sulfonyl)hexahydropyrrolo[3,4-c]pyrrol-2(1H)-yl)quinoxaline], the Ki stood at 1800 nM.
On to `Cc1cc(C)nc(N2CC3CN(C(=O)c4ccc(F)cc4-c4ccccn4)CC3C2)n1` (stereo not shown) [Example 366, (5-(4,6-Dimethylpyrimidin-2-yl)hexahydropyrrolo[3,4-c]pyrrol-2(1H)-yl)(4-fluoro-2-(pyridin-2-yl)phenyl)methanone], for which the Ki was 23 nM.
In the case of `Cc1cc(C)nc(N2CC3CN(C(=O)c4cccc(F)c4-c4ccccn4)CC3C2)n1` (stereo not shown) [Example 367, (5-(4,6-Dimethylpyrimidin-2-yl)hexahydropyrrolo[3,4-c]pyrrol-2(1H)-yl)(3-fluoro-2-(pyridin-2-yl)phenyl)methanone], the Ki was 15 nM.
As to `Cc1cc(C)nc(N2CC3CN(C(=O)c4ccc(F)cc4-c4ncco4)CC3C2)n1` (stereo not shown) [Example 369, (5-(4,6-Dimethylpyrimidin-2-yl)hexahydropyrrolo[3,4-c]pyrrol-2(1H)-yl)(4-fluoro-2-(oxazol-2-yl)phenyl)methanone], the Ki was determined as 19 nM.
Take `Cc1cccc(-c2c(F)cccc2C(=O)N2CC3CN(c4nc(C)cc(C)n4)CC3C2)n1` (stereo not shown) [Example 370, (5-(4,6-Dimethylpyrimidin-2-yl)hexahydropyrrolo[3,4-c]pyrrol-2(1H)-yl)(3-fluoro-2-(6-methylpyridin-2-yl)phenyl)methanone]: the Ki amounted to 84 nM.
For the compound `Cc1cc(C)nc(N2CC3CN(C(=O)c4cccc(F)c4-c4ncccc4C)CC3C2)n1` (stereo not shown) [Example 371, (5-(4,6-Dimethylpyrimidin-2-yl)hexahydropyrrolo[3,4-c]pyrrol-2(1H)-yl)(3-fluoro-2-(3-methylpyridin-2-yl)phenyl)methanone], the Ki is 3400 nM.
In the case of `Cc1cc(C)nc(N2CC3CN(C(=O)c4cccc(F)c4-c4ncccc4Cl)CC3C2)n1` (stereo not shown) [Example 372, (2-(3-Chloropyridin-2-yl)-3-fluorophenyl)(5-(4,6-dimethylpyrimidin-2-yl)hexahydropyrrolo[3,4-c]pyrrol-2(1H)-yl)methanone], the Ki is 109 nM.
As for `Cc1ccnc(-c2c(F)cccc2C(=O)N2CC3CN(c4nc(C)cc(C)n4)CC3C2)c1` (stereo not shown) [Example 373, (5-(4,6-Dimethylpyrimidin-2-yl)hexahydropyrrolo[3,4-c]pyrrol-2(1H)-yl)(3-fluoro-2-(4-methylpyridin-2-yl)phenyl)methanone], the Ki was determined as 42 nM.
Take `Cc1cc(C)nc(N2CC3CN(C(=O)c4cccc(F)c4-c4ncccc4F)CC3C2)n1` (stereo not shown) [Example 375, (5-(4,6-Dimethylpyrimidin-2-yl)hexahydropyrrolo[3,4-c]pyrrol-2(1H)-yl)(3-fluoro-2-(3-fluoropyridin-2-yl)phenyl)methanone]: the Ki was 21 nM.
For `Cc1cc(C)nc(N2CC3CN(C(=O)c4cccc(F)c4-c4ncco4)CC3C2)n1` (stereo not shown) [Example 376, (5-(4,6-Dimethylpyrimidin-2-yl)hexahydropyrrolo[3,4-c]pyrrol-2(1H)-yl)(3-fluoro-2-(oxazol-2-yl)phenyl)methanone], the Ki was 17 nM.
Same read-out and setting: under `COc1ccc(C(=O)N2CC3CN(c4ncc(F)c(C)n4)CC3C2)c(-n2nccn2)c1` (stereo not shown) [Example 377, 2-(5-Fluoro-4-methylpyrimidin-2-yl)-5-{[4-methoxy-2-(2H-1,2,3-triazol-2-yl)phenyl]carbonyl}octahydropyrrolo[3,4-c]pyrrole] stands 17 nM; under `COc1ccc(C(=O)N2CC3CN(c4ncc(Cl)c(C)n4)CC3C2)c(-n2nccn2)c1` (stereo not shown) [Example 378, 2-(5-Chloro-4-methylpyrimidin-2-yl)-5-{[4-methoxy-2-(2H-1,2,3-triazol-2-yl)phenyl]carbonyl}octahydropyrrolo[3,4-c]pyrrole], 10 nM; under `COc1ccc(C(=O)N2CC3CN(c4nc(C)c(F)c(C)n4)CC3C2)c(-n2nccn2)c1` (stereo not shown) [Example 379, 2-(5-Fluoro-4,6-dimethylpyrimidin-2-yl)-5-{[4-methoxy-2-(2H-1,2,3-triazol-2-yl)phenyl]carbonyl}octahydropyrrolo[3,4-c]pyrrole], 9 nM.
In the case of `COc1ccc(C(=O)N2CC3CN(c4ncc(C)c(C)n4)CC3C2)c(-n2nccn2)c1` (stereo not shown) [Example 380, 2-(4,5-Dimethylpyrimidin-2-yl)-5-{[4-methoxy-2-(2H-1,2,3-triazol-2-yl)phenyl]carbonyl}octahydropyrrolo[3,4-c]pyrrole], the Ki came out at 15 nM.
`CCc1c(C)nc(N2CC3CN(C(=O)c4ncccc4-n4nccn4)CC3C2)nc1C` (stereo not shown) [Example 385, 2-(5-Ethyl-4,6-dimethylpyrimidin-2-yl)-5-{[3-(2H-1,2,3-triazol-2-yl)pyridin-2-yl]carbonyl}octahydropyrrolo[3,4-c]pyrrole]: the Ki came to 42 nM.
As to `Cc1cc(C)nc(N2CC3CN(C(=O)c4ncccc4-c4nc(C)no4)CC3C2)n1` (stereo not shown) [Example 386, 2-(4,6-Dimethylpyrimidin-2-yl)-5-{[3-(3-methyl-1,2,4-oxadiazol-5-yl)pyridin-2-yl]carbonyl}octahydropyrrolo[3,4-c]pyrrole], the Ki was found to be 940 nM.
Same read-out and setting: under `O=C(c1cccc(F)c1-c1ncccn1)N1CC2CN(c3cnc4cc(F)c(F)cc4n3)CC2C1` (stereo not shown) [Example 387, (5-(6,7-Difluoroquinoxalin-2-yl)hexahydropyrrolo[3,4-c]pyrrol-2(1H)-yl)(3-fluoro-2-(pyrimidin-2-yl)phenyl)methanone] stands 16 nM; under `COc1ccc(C(=O)N2CC3CN(c4ncc5cc(F)ccc5n4)CC3C2)c(-n2nccn2)c1` (stereo not shown) [Example 388], 30 nM.
With `COc1ccc(C(=O)N2CC3CN(c4cnc5cc(F)c(F)cc5n4)CC3C2)c(-n2nccn2)c1` (stereo not shown) [Example 389, (5-(6,7-Difluoroquinoxalin-2-yl)hexahydropyrrolo[3,4-c]pyrrol-2(1H)-yl)(4-methoxy-2-(2H-1,2,3-triazol-2-yl)phenyl)methanone], the Ki was found to be 22 nM.

Still in this test, the particulars now being: read-out: OR 2 Ki.
As to `Cc1ccc(-c2c(F)cccc2C(=O)N2CC3CN(c4nc(C)cc(C)n4)CC3C2)nc1` (stereo not shown) [Example 374, (5-(4,6-Dimethylpyrimidin-2-yl)hexahydropyrrolo[3,4-c]pyrrol-2(1H)-yl)(3-fluoro-2-(5-methylpyridin-2-yl)phenyl)methanone], the Ki amounted to 73 nM.

Values taken from US8653263B2 (Janssen Pharmaceutica, priority 2009, dated 2014).
